Earlier results in PMC2365120, “Antitumour Metallocenes: Effect of DMSO on the Stability of Cp2TiX2 and Implications for Anticancer Activity” (Metal-Based Drugs, 1998).
Like-named read-outs stand apart in the source and are kept apart here.

Columns and labels:
[1] = system: fluid Ehrlich ascites tumour; conditions: for Optimum Cure Rate (%) / Optimum dose range: fluid Ehrlich ascites tumour, samples administered in 10%DMSO/saline
[2] = samples administered in 10%DMSO/saline
[3] = for % Cp hydrolysis: Table 3, D2O (pD ~2-3), reaction time 24 h

SMILES | Optimum Cure Rate (%) ([1]; Table 1, Cp2TiX2) | Optimum dose range ([1]; Table 1, Cp2TiX2) | LD50 ([2]; Table 1, Cp2TiX2) [mg/kg] | further results
[Cl-].[Cl-].[Ti+4].c1cc[cH-]c1.c1cc[cH-]c1 [Compound 1, Titanocene dichloride, reference compound] | 100 | 40-60 mg/kcj | 100 | % Cp hydrolysis [3]: 0%; Time the Cp rings remain metal bound ([3]; in water, low pH after halide hydrolysis): over 24 h
[F][Ti+2][F].c1cc[cH-]c1.c1cc[cH-]c1 [Compound 2] | 100 | 40 mg/kcj | 60 | 
[Br][Ti+2][Br].c1cc[cH-]c1.c1cc[cH-]c1 [Compound 3] | 100 |  | 135 | 
[I][Ti+2][I].c1cc[cH-]c1.c1cc[cH-]c1 [Compound 4] | 100 | 60-100 mg/kcj | 145 | 
S=C=[N][Ti+2][N]=C=S.c1cc[cH-]c1.c1cc[cH-]c1 [Compound 5] | 100 | 80 mg/kcj | 135 | 
O=C(O)C(Cl)(Cl)Cl.O=C(O)C(Cl)(Cl)Cl.[Ti+2].c1cc[cH-]c1.c1cc[cH-]c1 [Compound 8, titanocene bis(trichloroacetate)] | 100 | 100-360 mg/kcj | 440 | Aqueous solubility: poor
O=C(O)/C=C\C(=O)[O][Ti+2][O]C(=O)/C=C\C(=O)O.c1cc[cH-]c1.c1cc[cH-]c1 [Compound 9] | 100 | 60-120 mg/kcj | 170 | Aqueous solubility: increase in aqueous solubility
O=[N+]([O-])c1ccc([O][Ti+2][O]c2ccc([N+](=O)[O-])cc2)cc1.c1cc[cH-]c1.c1cc[cH-]c1 [Compound 10] | 10 | 180-240 mg/kcj | 260 | 
Fc1c(F)c(F)c([O][Ti+2][O]c2c(F)c(F)c(F)c(F)c2F)c(F)c1F.c1cc[cH-]c1.c1cc[cH-]c1 [Compound 11] | 100 | 340-360 mg/kcj | 480 | 
Fc1c(F)c(F)c([S][Ti+2][S]c2c(F)c(F)c(F)c(F)c2F)c(F)c1F.c1cc[cH-]c1.c1cc[cH-]c1 [Compound 12] | 100 | 120-180 mg/kcj | 260 | 
[Cl-].[Cl-].[NH3+]CC(=O)[O][Ti+2][O]C(=O)C[NH3+].c1cc[cH-]c1.c1cc[cH-]c1 [Compound 13, titanocene bis(glycine)] | 50 |  | > 160 | % Cp hydrolysis [3]: < 2%
C[C@H]([NH3+])C(=O)[O][Ti+2][O]C(=O)[C@H](C)[NH3+].[Cl-].[Cl-].c1cc[cH-]c1.c1cc[cH-]c1 [Compound 14] | 50 | 160 mg/kcj | 185 | Aqueous solubility: highly water soluble
[Cl][Ti+2][O]c1ccc(Cl)c(Cl)c1Cl.c1cc[cH-]c1.c1cc[cH-]c1 [Compound 15] |  |  |  | Optimum Cure Rate (%) ([1]; Table 2, Cp2TiClX): 50%; Optimum dose range ([1]; Table 2, Cp2TiClX): 60 to 140 mg/kg; LD50 ([2]; Table 2, Cp2TiClX): 200 mg/kg
Cc1ccccc1[S][Ti+2][Cl].c1cc[cH-]c1.c1cc[cH-]c1 [Compound 16] |  |  |  | Optimum Cure Rate (%) ([1]; Table 2, Cp2TiClX): 25%; Optimum dose range ([1]; Table 2, Cp2TiClX): 30 to 60 mg/kg
Nc1ccccc1[S][Ti+2][Cl].c1cc[cH-]c1.c1cc[cH-]c1 [Compound 17] |  |  |  | Optimum Cure Rate (%) ([1]; Table 2, Cp2TiClX): 13%; LD50 ([2]; Table 2, Cp2TiClX): 100 mg/kg
[Cl][Ti+]([Cl])[Cl].c1cc[cH-]c1 [CpTiCI3, reference compound] |  |  |  | Antitumour activity ([1]; partially hydrolysed derivative lacking one Cp ring): reduced activity
